Where “and” joins values, the source holds several entries; their conditions need not be identical. Identical values can stand only once.
Tested on: CD56+γδTCR+iTCR+ cells
Experiment: AVM0703 R/R NHL clinical trial, whole blood flow cytometry
Format: in vivo, human
Procedure: FIG. 15. 101-001 size (FSC) and complexity (SSC) scattergram of AVM_NKT cells. […] Blood was stained with panel antibodies based for 15 minutes in the dark at Room Temperature. RBC lysis was performed by addition of 1 mL of 1×BD FACS Lysing Solution (BD Bioscience), diluted with MilliQ water, for 10 minutes in the dark at Room Temperature. Samples were washed with 2 mL 1×DPBS CMF (Gibco) and resuspended in 300 μL of 1×DPBS CMF before 5 μL of 7AAD (Biolegend) was added to each sample for live/dead cell determination and incubated for 5 minutes in the dark at Room Temperature. 250 μL of sample were taken up for acquisition on Macsquant 16 Flow Cytometer (Miltenyi, Serial #40150). Live white blood cells were gated for CD56+ cells co-expressing gamma delta TCR and the invariant TCR and labelled red in the forward versus side scattergram. Red-labelled cells fall within the forward versus side scattergrams where large granular cells such as neutrophils and large granular lymphocytes are known to fall.
For characterisation of the induced/mobilized population of NKT-like cells (AVM-NKT) in humans, whole blood from human subjects was drawn in K2 EDTA Vacutainer tube (367862, BD Biosciences, NJ) and shipped to AVM Biotechnology at room temperature. 100 μl of whole blood was stained with the following antibodies: CD45 AF700 (2D1), CD16 APC (3G8), INKT PECy7 (6B11), CD8 PE (SK1), CD14 FITC (M5E2), CD56 BV650 (5.1H11), γδTCR BV510 (B1), CD19 BV421 (HIB19), NKp44 APC (P44-8) (all from Biolegend, San Diego, CA) and CD3 APCVio770 (BW264/56), (Miltenyi Biotec, San Jose, CA), 7-AAD, (Biolegend, San Diego CA) was included to distinguish the live and dead cells.

[1] = patient 101-001, 6 mg/kg, 1 hour post-infusion
[2] = patient 101-001, 6 mg/kg, Day 14
[3] = patient 103-002, 6 mg/kg, 1 hour post-infusion
[4] = patient 103-002, 6 mg/kg, Day 3
[5] = patient 103-002, 6 mg/kg, Day 14
[6] = patient 103-005, 9 mg/kg, 1 hour post-infusion
[7] = patient 103-005, 9 mg/kg, Day 3
[8] = patient 103-005, 9 mg/kg, Day 14
[9] = patient 103-006, 9 mg/kg, day 3
[10] = patient 103-006, 9 mg/kg, day 14
[11] = patient 108-001, 1st 9 mg/kg infusion, 1 hour

C[C@@H]1C[C@H]2[C@@H]3CCC4=CC(=O)C=C[C@]4(C)[C@@]3(F)[C@@H](O)C[C@]2(C)[C@@]1(O)C(=O)COP(=O)(O)O [AVM0703, dexamethasone sodium phosphate]
time to mobilization of bi-specific gamma delta TCR+ invariant TCR+ cell into the blood (R/R NHL clinical trial patients, dosing between 6 mg/kg and 18 mg/kg): 30 to 60 min
CD56+gdTCR+ inv TCR+ cells induced (patient 101-001, 6 mg/kg): YES
CD3 (as % of CD56+ γδTCR+ iTCR+ cells) [1]: 39%
CD8med (as % of CD56+ γδTCR+ iTCR+ cells) [1]: 86%
CD19+ (as % of CD56+ γδTCR+ iTCR+ cells) [1]: 54%
CD45 (as % of CD56+ γδTCR+ iTCR+ cells) [1]: 99%
CD56+ γδTCR+ iTCR+ % of total WBCs [1]: 0.24%
CD56+ γδTCR+ iTCR+ cells/uL [1]: 11.4 cells/uL
TCRαβ (as % of CD56+ γδTCR+ iTCR+ cells) [1]: 100%
CD3 (as % of CD56+ γδTCR+ iTCR+ cells) [2]: 99%
CD8med (as % of CD56+ γδTCR+ iTCR+ cells) [2]: 94%
CD19+ (as % of CD56+ γδTCR+ iTCR+ cells) [2]: 22%
CD45 (as % of CD56+ γδTCR+ iTCR+ cells) [2]: 99.5%
CD56+ γδTCR+ iTCR+ % of total WBCs [2]: 1.74%
CD56+ γδTCR+ iTCR+ cells/uL [2]: 78.7 cells/uL and 79 cells/uL
TCRαβ (as % of CD56+ γδTCR+ iTCR+ cells) [2]: 99%
CD56+γδTCR+ cells, % of all CD45+ cells (patient 101-001, one hour after 6 mg/kg infusion (pre-infusion 1.6%)): 3.48%
CD56+γδTCR+ cells/uL blood (patient 101-001, one hour after 6 mg/kg infusion (pre-infusion 76)): 165 cells/uL blood
% of CD56+γδTCR+ cells co-expressing invTCR (patient 103-002, 6 mg/kg): about 10%
CD56+gdTCR+ inv TCR+ cells induced (patient 103-002, 6 mg/kg): YES
CD3 (as % of CD56+ γδTCR+ iTCR+ cells) [3]: 4.2%
CD8hi (as % of CD56+ γδTCR+ iTCR+ cells) [3]: 2.6%
CD8med (as % of CD56+ γδTCR+ iTCR+ cells) [3]: 2.9%
CD19+ (as % of CD56+ γδTCR+ iTCR+ cells) [3]: 0.78%
CD45 (as % of CD56+ γδTCR+ iTCR+ cells) [3]: 92%
CD56+ γδTCR+ iTCR+ % of total WBCs [3]: 0.83%
CD56+ γδTCR+ iTCR+ cells/uL [3]: 65.6 cells/uL
TCRαβ (as % of CD56+ γδTCR+ iTCR+ cells) [3]: 79%
CD56+γδTCR+ cells, % of all CD45+ cells (patient 103-002, 6 mg/kg, 1 hour post-infusion (pre-infusion 9.3%)): 6.54%
CD56+γδTCR+ cells/uL blood (patient 103-002, 6 mg/kg, 1 hour post-infusion (pre-infusion 735)): 517 cells/uL blood
CD3 (as % of CD56+ γδTCR+ iTCR+ cells) [4]: 67%
CD8hi (as % of CD56+ γδTCR+ iTCR+ cells) [4]: 2%
CD8med (as % of CD56+ γδTCR+ iTCR+ cells) [4]: 30%
CD19+ (as % of CD56+ γδTCR+ iTCR+ cells) [4]: 4% and 4.2%
CD45 (as % of CD56+ γδTCR+ iTCR+ cells) [4]: 17%
CD56+ γδTCR+ iTCR+ % of total WBCs [4]: 1.99%
CD56+ γδTCR+ iTCR+ cells/uL [4]: 366 cells/uL and 366.2 cells/uL
TCRαβ (as % of CD56+ γδTCR+ iTCR+ cells) [4]: 54%
CD3 (as % of CD56+ γδTCR+ iTCR+ cells) [5]: 31.5%
CD8hi (as % of CD56+ γδTCR+ iTCR+ cells) [5]: 2.4%
CD8med (as % of CD56+ γδTCR+ iTCR+ cells) [5]: 70%
CD19+ (as % of CD56+ γδTCR+ iTCR+ cells) [5]: 1.76%
CD45 (as % of CD56+ γδTCR+ iTCR+ cells) [5]: 98%
CD56+ γδTCR+ iTCR+ % of total WBCs [5]: 0.42%
CD56+ γδTCR+ iTCR+ cells/uL [5]: 27 cells/uL
TCRαβ (as % of CD56+ γδTCR+ iTCR+ cells) [5]: 78%
CD56+gdTCR+ inv TCR+ cells induced (patient 103-004, 6 mg/kg): YES
CD56+gdTCR+ inv TCR+ cells induced (patient 103-005, 9 mg/kg): YES
CD3 (as % of CD56+ γδTCR+ iTCR+ cells) [6]: 6%
CD8med (as % of CD56+ γδTCR+ iTCR+ cells) [6]: 17%
CD14+ (as % of CD56+ γδTCR+ iTCR+ cells) [6]: 76%
CD16 (as % of CD56+ γδTCR+ iTCR+ cells) [6]: 66%
CD19+ (as % of CD56+ γδTCR+ iTCR+ cells) [6]: 33.9%
CD45 (as % of CD56+ γδTCR+ iTCR+ cells) [6]: 99%
CD56+ γδTCR+ iTCR+ % of total WBCs [6]: 0.87%
CD56+ γδTCR+ iTCR+ cells/uL [6]: 21.8 cells/uL
CD3 (as % of CD56+ γδTCR+ iTCR+ cells) [7]: 10%
CD8med (as % of CD56+ γδTCR+ iTCR+ cells) [7]: 15%
CD14+ (as % of CD56+ γδTCR+ iTCR+ cells) [7]: 8%
CD16 (as % of CD56+ γδTCR+ iTCR+ cells) [7]: 84%
CD19+ (as % of CD56+ γδTCR+ iTCR+ cells) [7]: 28%
CD45 (as % of CD56+ γδTCR+ iTCR+ cells) [7]: 63%
CD56+ γδTCR+ iTCR+ % of total WBCs [7]: 2.67%
CD56+ γδTCR+ iTCR+ cells/uL [7]: 82.8 cells/uL
CD3 (as % of CD56+ γδTCR+ iTCR+ cells) [8]: 66%
CD8med (as % of CD56+ γδTCR+ iTCR+ cells) [8]: 16%
CD14+ (as % of CD56+ γδTCR+ iTCR+ cells) [8]: 81%
CD16 (as % of CD56+ γδTCR+ iTCR+ cells) [8]: 37%
CD19+ (as % of CD56+ γδTCR+ iTCR+ cells) [8]: 99%
CD45 (as % of CD56+ γδTCR+ iTCR+ cells) [8]: 84%
CD56+ γδTCR+ iTCR+ % of total WBCs [8]: 0.66%
CD56+ γδTCR+ iTCR+ cells/uL [8]: 22.4 cells/uL
CD56+γδTCR+ cells, % of CD45+ cells (patient 103-005, one hour after 9 mg/kg (baseline 2.7%)): 0.21%
% of CD56+γδTCR+ cells expressing CD16 [9]: 92%
% of CD56+γδTCR+ cells expressing NKp44 [9]: 19%
CD56+γδTCR+ cells, % of all WBCs [9]: 2.2%
ICAM3 MFI of CD56+γδTCR+ cells [9]: 240
% of CD56+γδTCR+ cells expressing CD16 [10]: 92%
% of CD56+γδTCR+ cells expressing NKp44 [10]: 19%
CD56+γδTCR+ cells, % of all WBCs [10]: 2.2% and 0.11%
ICAM3 MFI of CD56+γδTCR+ cells [10]: 240
CD56+γδTCR+ cells, number or expression in the blood (patient 103-006, one hour after 9 mg/kg): had not changed
% of CD56+γδTCR+ cells NKp44+ (patient 103-006, one hour after 9 mg/kg (baseline 42%)): 25%
ICAM3 MFI of CD56+γδTCR+ cells (patient 103-006, one hour after 9 mg/kg (baseline 294)): no change
CD56+gdTCR+ inv TCR+ cells induced (patient 108-001, 9 mg/kg): YES
CD3 (as % of CD56+ γδTCR+ iTCR+ cells) [11]: 4%
CD8hi (as % of CD56+ γδTCR+ iTCR+ cells) [11]: 1%
CD8med (as % of CD56+ γδTCR+ iTCR+ cells) [11]: 11%
CD14+ (as % of CD56+ γδTCR+ iTCR+ cells) [11]: 35%
CD16 (as % of CD56+ γδTCR+ iTCR+ cells) [11]: 90%
CD19+ (as % of CD56+ γδTCR+ iTCR+ cells) [11]: 11.3%

From patent publication US20240358829A1, “Lymphocyte Population and Methods for Producing Same” (AVM Biotechnology, LLC, priority 2021, published 2024)
